Consider six compounds from US4804663A, “3-piperidinyl-substituted 1,2-benzisoxazoles and 1,2-benzisothiazoles” (Janssen Pharmaceutica N.V., priority 1986, dated 1989).

Assay [1] deals with apomorphine-induced emesis. Nature of the assay: apomorphine test in dogs (APO-dog). The assay is classed as in vivo, beagle dog. Particulars: Canis lupus familiaris, sc, read-out: ED50 (APO)--dog. An excerpt: (§1) The activity of the subject compounds as […] is evidenced by the experimental data obtained in at least one of two different test procedures, viz., the combined apomorphine-, tryptamine- and norepinephrine tests in rats and the apomorphine test in dogs.
The apomorphine test in dogs (APO-dog).
The method used is described by P. A. J. Janssen and C. J. E. Niemegeers in Arzneim.-Forsch. (Drug Res.), 9, 765-767 (1959). […]
The table 1 gives the ED50 -values of a number of the compounds under consideration. As used herein, the ED50 value represents the dose which protects 50% of the animals from emesis.

In assay [2] the test system is tryptamine-induced bilateral tonic seizures. Nature of the assay: combined test in rats: tryptamine (TRY). Type of assay: in vivo, rat (adult male Wistar rats). Conditions: Rattus norvegicus, sc, 1.5 h, read-out: ED50 (TRY)--rat. The procedure:
as §1
(§2) The combined apomorphine (APO)-, tryptamine (TRY)- and norepinephrine (NOR) test in rats.
(§3) The experimental animals used in this test were adult male Wistar rats (weight 240±10 g). After an overnight fast, the animals were treated subcutaneously (1 ml/100 g) with an aqueous solution of the compound under investigation (time=zero) and put in isolated observation cages. Thirty minutes thereafter (time=30 minutes) 1.25 mg/kg of apomorphine hydrochloride (APO) was injected intravenously and the rats were observed over a 1 hour period for the presence or absence of the following apomorphine-induced phenomena; agitation and stereotypic chewing. At the end of this 1 hour period (time=90 minutes) the same animals were injected intravenously with 40 mg/kg of tryptamine (TRY) and the presence of the typical tryptamine-induced bilateral tonic seizures was noted. Two hours after pretreatment (time=120 minutes) finally, the same animals were challenged with 1.25 mg/kg intravenously of norephinephrine (NOR) and possible mortality was looked for up to 60 minutes later.
(§4) The table 1 gives the ED50 -value of a number of the compounds under consideration. As used herein, the ED50 -value represents the dose which protects 50% of the animals from apomorphine-, tryptamine- or norepinephrine-induced phenomena.

In assay [3] the test system is norepinephrine-induced mortality. Nature of the assay: combined test in rats: norepinephrine (NOR). Particulars: Rattus norvegicus, sc, 2 h; norepinephrine 1.25 mg/kg i.v. at 120 minutes; dose protecting 50% of animals. The assay is classed as in vivo, rat (adult male Wistar rats). The procedure:
as §1, §2, §3, §4

Assay [4] relates to apomorphine-induced agitation and stereotypic chewing. Nature of the assay: combined test in rats: apomorphine (APO). Type of assay: in vivo, rat (adult male Wistar rats). Particulars: Rattus norvegicus, sc, 0.5 h, read-out: ED50 (APO)--rat. The procedure:
as §1, §2, §3, §4

The mark [5] stands for this setting: duration 1 h, apomorphine 0.31 mg/kg s.c., dose protecting 50% from emesis.
The mark [6] stands for this setting: duration 4 h, apomorphine 0.31 mg/kg s.c., dose protecting 50% from emesis.
[7] abbreviates: s.c., tryptamine 40 mg/kg i.v. at 90 minutes, dose protecting 50% of animals.
The mark [8] stands for this setting: s.c., apomorphine 1.25 mg/kg i.v. 30 minutes after treatment, dose protecting 50% of animals.

Molecules are shown by their SMILES. Read-outs that look alike come from different tables or passages of the source.

For `Cc1nc2scc(C)n2c(=O)c1CCN1CCC(c2noc3cc(F)ccc23)CC1` [Compound 13, 6-[2-[4-(6-fluoro-1,2-benzisoxazol-3-yl)-1-piperidinyl]ethyl]-3,7-dimethyl-5H-thiazolo[3,2-a]pyrimidin-5-one], the median effective dose (ED50) (as a rule, the midpoint of the dose-response relation) in assay [1] (setting [5]) is 0.015 mg/kg; in assay [1] (setting [6]), 0.06 mg/kg; in assay [2] (setting [7]) it was 0.02 mg/kg; in assay [3], 0.08 mg/kg; in assay [4] (setting [8]) it was 0.02 mg/kg.
With `Cc1nc2n(c(=O)c1CCN1CCC(c3noc4cc(F)ccc34)CC1)CCS2` [Compound 14, 6-[2-[4-(6-fluoro-1,2-benzisoxazol-3-yl)-1-piperidinyl]ethyl]-2,3-dihydro-7-methyl-5H-thiazolo[3,2-a]pyrimidin-5-one], the ED50 in assay [1] (setting [5]) stood at 0.004 mg/kg; in assay [1] (setting [6]), 0.004 mg/kg; in assay [2] (setting [7]), 0.005 mg/kg; in assay [3] it was 0.31 mg/kg; in assay [4] (setting [8]), 0.02 mg/kg.
As for `Cc1nc2ccccn2c(=O)c1CCN1CCC(c2noc3cc(F)ccc23)CC1` [Compound 11, 3-[2-[4-(6-fluoro-1,2-benzisoxazol-3-yl)-1-piperidinyl]ethyl]-2-methyl-4H-pyrido[1,2-a]pyrimidin-4-one], the ED50 in assay [1] (setting [5]) is 0.015 mg/kg; in assay [1] (setting [6]) it was 0.03 mg/kg; in assay [2] (setting [7]), 0.01 mg/kg; in assay [3] it was 0.16 mg/kg; in assay [4] (setting [8]) it was 0.02 mg/kg.
On the same counts, the results for `Cc1nc2n(c(=O)c1CCN1CCC(c3noc4cc(F)ccc34)CC1)CCCS2` [Compound 15, 7-[2-[4-(6-fluoro-1,2-benzisoxazol-3-yl)-1-piperidinyl]ethyl]-3,4-dihydro-8-methyl-2H,6H-pyrimido[2,1-b][1,3]thiazin-6-one] are 0.015 mg/kg, 0.06 mg/kg, 0.01 mg/kg, 0.31 mg/kg and 0.08 mg/kg.
For the compound `Cc1nc2sccn2c(=O)c1CCN1CCC(c2noc3cc(F)ccc23)CC1` [Compound 2, 6-[2-[4-(6-fluoro-1,2-benzisoxazol-3-yl)-1-piperidinyl]ethyl]-7-methyl-5H-thiazolo[3,2-a]pyrimidin-5-one], the ED50 is 0.004 mg/kg in assay [1] (setting [5]); 0.008 mg/kg in assay [1] (setting [6]); 0.16 mg/kg in assay [1] (duration 16 h, apomorphine 0.31 mg/kg s.c., dose protecting 50% from emesis); 0.005 mg/kg in assay [2] (setting [7]); 0.31 mg/kg in assay [3]; 0.02 mg/kg in assay [4] (setting [8]).
As to `Cc1nc2n(c(=O)c1CCN1CCC(c3noc4cc(F)ccc34)CC1)CCCC2` [Compound 1, 3-[2-[4-(6-fluoro-1,2-benzisoxazol-3-yl)-1-piperidinyl]ethyl]-6,7,8,9-tetrahydro-2-methyl-4H-pyrido[1,2-a]pyrimidin-4-one], the 50% effective dose (ED50) in assay [1] (1 h) turned out to be 0.008 mg/kg; in assay [1] (2 h) it was 0.005 mg/kg; in assay [1] (4 h), 0.015 mg/kg; in assay [1] (8 h), 0.018 mg/kg; in assay [1] (16 h), 0.02 mg/kg; in assay [2] it was 0.08 mg/kg. In addition, the median effective dose (ED50) worked out at 0.16 mg/kg in assay [3] and 0.08 mg/kg in assay [4].
